Reference: patent publication US10494360B2, “Inhibitors of indoleamine 2,3-dioxygenase” (NETHERLANDS TRANSLATIONAL RESEARCH CENTER B.V., priority 2016, dated 2019)
Where “and” joins values, the source holds several entries; their conditions need not be identical. Identical values can stand only once.

Columns and labels:
[1] = target: T1, IDO1 (Homo sapiens, UniProt P14902); experiment: Cell-based assay for IDO1 in interferon-γ stimulated A-375 melanoma cells; conditions: interferon-γ stimulation, 48 hours, read-out: IC50, cell-based IDO1 (NFK levels)
Method: The biological activity of IDO1 inhibitors can be measured by applying above detection methods to cells that are treated with test compound. The expression of IDO1 can be induced in many different cell lines by stimulation with IFNγ (Takikawa, O., et al., J. Biol. Chem. 263: 2041; 1988; Seegers, et al.), or IDO1 can be expressed in cells that lack endogenous IDO1 by transfection of an expression vector containing IDO1 cDNA.
A-375 melanoma cells were purchased from LGC Standards GmbH (Wesel, Germany) and cultured in DMEM tissue culture medium (Life Technologies, Bleiswijk, The Netherlands), supplemented with 10% (v/v) bovine calf serum. Compounds were dissolved in DMSO and diluted in DMEM. Final DMSO concentration in the assay was 0.4% (v/v). Eight thousand cells per well in 35 μl were seeded in a black 384-well tissue plate (cat. No. 781086; Greiner Bio-One GmbH, Frickenhausen, Germany) and allowed to adhere by incubation at 37° C., 95% humidity, and 5% CO2 overnight. Then, 5 μl of compound solution was added to the cells 1 hour prior to stimulation with 5 μl of 500 ng/ml interferon-γ (R&D Systems, Minneapolis, Minn., USA) diluted in DMEM medium. At the same time, 5 μl of L-tryptophan in 20 mM Hepes buffer pH 7.4 was added. Incubation was continued for 48 hours. To determine NFK levels, 12 μl NFK Green™ (NTRC, Oss, The Netherlands) was added to each well, and the plate was sealed and incubated for 4 hours at 37° C. Fluorescence was measured on an EnVision multimode reader (Perkin Elmer, Waltham, Mass., USA). IC50 were calculated using XLfit™ software (ID Business Solutions, Ltd., Surrey, U.K.).

[2] = target: T1, IDO1; experiment: Biochemical IDO1 assay (NFK GreenScreen); design: Recombinant full-length IDO1 (Seegers, N., et al.) and all other assay components were diluted in IDO1 reaction buffer; made in house; conditions: for relative activity of separated isomers: less active / most active isomer of the pair, assay not given; for IC50: recombinant full-length IDO1 25 nM, L-tryptophan 100 μM, NFK Green detection, read-out: IC50, inhibitory potency on IDO1
Method: Inhibition of IDO1 activity can be measured by determining the enzymatic conversion of L-tryptophan into N-formylkynurenine (NFK) in a reaction mixture containing IDO1 and test compound. The formation of NFK can be detected directly by, for instance, high-performance liquid chromatography (HPLC) methods, or by intrinsic fluorescence.
Compounds were serially diluted in dimethylsulfoxide (DMSO) and finally in IDO1 reaction buffer, consisting of 50 mM NaH2PO4, pH7.0, supplemented with 0.05% Tween-20 (cat. No. P7949; Sigma Aldrich) and 1% glycerol. Recombinant full-length IDO1 (Seegers, N., et al.) and all other assay components were diluted in IDO1 reaction buffer. […] Subsequently, 10 μl of 0.4 mM of the substrate L-tryptophan was added, i.e., the final concentration of L-tryptophan was 100 μM. The DMSO concentration in the assay was 0.3%. […] Incubation was continued for 60 min at room temperature. Then, 10 μl of NFK Green™ (NTRC, Oss, The Netherlands) was added, the plate was sealed, and the reaction was developed for 3 hours at 37° C. To determine the production of N-formyl kynurenine (NFK), the seal was removed and fluorescence was read on an EnVision multimode reader (Perkin Elmer, Waltham, Mass., USA). IC50 were calculated using XLfit™ software (ID Business Solutions, Ltd., Surrey, U.K.).

T1 sequence (P14902 whole entry, species assumed): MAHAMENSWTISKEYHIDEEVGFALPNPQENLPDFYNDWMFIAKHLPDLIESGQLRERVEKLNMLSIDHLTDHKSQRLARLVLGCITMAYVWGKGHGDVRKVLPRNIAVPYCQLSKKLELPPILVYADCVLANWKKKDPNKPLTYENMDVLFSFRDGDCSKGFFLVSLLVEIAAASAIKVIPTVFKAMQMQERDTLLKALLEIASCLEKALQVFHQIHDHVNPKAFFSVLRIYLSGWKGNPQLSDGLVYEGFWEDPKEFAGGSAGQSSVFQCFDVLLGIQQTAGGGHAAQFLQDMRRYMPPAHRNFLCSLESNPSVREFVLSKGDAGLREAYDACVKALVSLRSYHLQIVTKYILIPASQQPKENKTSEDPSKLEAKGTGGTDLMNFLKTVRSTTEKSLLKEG

Row | Structure (SMILES) | IC50 [1] [µM] | relative activity of separated isomers [2] | IC50 [2]
1 | C[C@@H](c1ccccc1)N1CC(=O)N(O)C1c1cccc(Br)c1 (single isomer, unassigned) [Example 139b] | < 5 | most active isomer | ≤ 1 µM
2 | C[C@@H](c1ccccc1)N1CC(=O)N(O)C1c1cccc(I)c1 (single isomer, unassigned) [Example 140a] | < 5 | less active isomer | ≤ 5 µM and 1 to 5 µM
3 | CC(c1c(F)cccc1F)N1CC(=O)N(O)C1c1cccc(Br)c1 (single isomer, unassigned) [Example 141b, 2-(3-Bromophenyl)-1-[1-(2,6-difluorophenyl)ethyl]-3-hydroxy-imidazolidin-4-one] | < 5 | – | ≤ 1 µM
4 | O=C1CN(C(=O)c2c(F)cccc2F)C(c2cccc(Br)c2)N1O (single isomer, unassigned) [Example 142a, 2-(3-bromophenyl)-1-(2,6-difluorobenzoyl)-3-hydroxy-imidazolidin-4-one] | < 5 | less active isomer | ≤ 5 µM and 1 to 5 µM
5 | O=C1CN(C(=O)c2ccccc2Cl)C(c2cccc(C(F)(F)F)c2)N1O (centres unmarked) [Example 2, 1-(2-Chlorobenzoyl)-3-hydroxy-2-[3-(trifluoromethyl)phenyl]imidazolidin-4-one] | < 5 | – | ≤ 5 µM and 1 to 5 µM
6 | O=C1CN(C(=O)c2c(F)cccc2Cl)C(c2cccc(C(F)(F)F)c2)N1O (centres unmarked) [Example 3, 1-(2-Chloro-6-fluoro-benzoyl)-3-hydroxy-2-[3-(trifluoromethyl)phenyl]imidazolidin-4-one] | < 5 | – | ≤ 1 µM
7 | O=C1CN(C(=O)c2c(F)cccc2F)C(c2cccc(C(F)(F)F)c2)N1O (centres unmarked) [Example 4, 1-(2,6-Difluorobenzoyl)-3-hydroxy-2-[3-(trifluoromethyl)phenyl]imidazolidin-4-one] | < 5 | – | ≤ 1 µM
8 | O=C1CN(C(=O)c2c(F)cccc2Cl)C(c2ccc(Cl)c(C(F)(F)F)c2)N1O (centres unmarked) [Example 7, 1-(2-Chloro-6-fluoro-benzoyl)-2-[4-chloro-3-(trifluoromethyl)phenyl]-3-hydroxy-imidazolidin-4-one] | < 5 | – | ≤ 5 µM and 1 to 5 µM
9 | O=C1CN(C(=O)c2c(F)cccc2F)C(c2ccc(Cl)c(C(F)(F)F)c2)N1O (centres unmarked) [Example 9, 2-[4-Chloro-3-(trifluoromethyl)phenyl]-1-(2,6-difluorobenzoyl)-3-hydroxy-imidazolidin-4-one] | < 5 | – | ≤ 1 µM
10 | O=C1CN(C(=O)c2ccccc2F)C(c2cccc(C(F)(F)F)c2)N1O (centres unmarked) [Example 10, 1-(2-Fluorobenzoyl)-3-hydroxy-2-[3-(trifluoromethyl)phenyl]imidazolidin-4-one] | < 5 | – | ≤ 5 µM and 1 to 5 µM
11 | O=C1CN(C(=O)c2ccccc2F)C(c2cccc(Cl)c2)N1O (centres unmarked) [Example 13, 2-(3-Chlorophenyl)-1-(2-fluorobenzoyl)-3-hydroxy-imidazolidin-4-one] | < 5 | – | ≤ 1 µM
12 | O=C1CN(C(=O)c2c(F)cccc2F)C(c2cccc(Cl)c2)N1O (centres unmarked) [Example 15, 2-(3-Chlorophenyl)-1-(2,6-difluorobenzoyl)-3-hydroxy-imidazolidin-4-one] | < 5 | – | ≤ 1 µM
13 | O=C1CN(C(=O)c2ccccc2)C(c2cccc(Br)c2)N1O (centres unmarked) [Example 17, 1-Benzoyl-2-(3-bromophenyl)-3-hydroxy-imidazolidin-4-one] | < 5 | – | ≤ 5 µM and 1 to 5 µM
14 | N#Cc1cc(F)c(C(=O)N2CC(=O)N(O)C2c2cccc(Br)c2)c(Cl)c1 (centres unmarked) [Example 25, 4-[2-(3-Bromophenyl)-3-hydroxy-4-oxo-imidazolidine-1-carbonyl]-3-chloro-5-fluoro-benzonitrile] | < 5 | – | ≤ 5 µM and 1 to 5 µM
15 | O=C1CN(C(=O)c2cc(F)ccc2F)C(c2cccc(Br)c2)N1O (centres unmarked) [Example 26, 2-(3-Bromophenyl)-1-(2,5-difluorobenzoyl)-3-hydroxy-imidazolidin-4-one] | < 5 | – | ≤ 1 µM
16 | O=C1CN(C(=O)c2c(F)cccc2F)C(c2cccc(Br)c2)N1O (centres unmarked) [Example 27, 2-(3-Bromophenyl)-1-(2,6-difluorobenzoyl)-3-hydroxy-imidazolidin-4-one] | < 5 | – | ≤ 1 µM
17 | CC(=O)NC(C)(C)C#Cc1cc(F)c(C(=O)N2CC(=O)N(O)C2c2cccc(Br)c2)c(F)c1 (centres unmarked) [Example 113, N-[3-[4-[2-(3-bromophenyl)-3-hydroxy-4-oxo-imidazolidine-1-carbonyl]-3,5-difluoro-phenyl]-1,1-dimethyl-prop-2-ynyl]acetamide] | – | – | ≤ 5 µM and 1 to 5 µM
18 | O=C1CN(C(=O)c2c(F)cc(-c3ccccc3)cc2F)C(c2cccc(Br)c2)N1O (centres unmarked) [Example 117, 2-(3-Bromophenyl)-1-(2,6-difluoro-4-phenyl-benzoyl)-3-hydroxy-imidazolidin-4-one] | – | – | ≤ 1 µM
19 | O=C1CN(C(=O)c2c(F)cc(-c3ccc(F)s3)cc2F)C(c2cccc(Br)c2)N1O (centres unmarked) [Example 121, 2-(3-Bromophenyl)-1-[2,6-difluoro-4-(5-fluoro-2-thienyl)benzoyl]-3-hydroxy-imidazolidin-4-one] | – | – | ≤ 5 µM and 1 to 5 µM
20 | O=C1CN(C(=O)c2c(F)cc(-c3cccnc3)cc2F)C(c2cccc(Br)c2)N1O (centres unmarked) [Example 123, 2-(3-Bromophenyl)-1-[2,6-difluoro-4-(3-pyridyl)benzoyl]-3-hydroxy-imidazolidin-4-one] | – | – | ≤ 5 µM and 1 to 5 µM
21 | O=C1CN(Cc2ccccc2F)C(c2ccc(F)c(Br)c2)N1O (centres unmarked) [Example 126, 2-(3-Bromo-4-fluoro-phenyl)-1-[(2-fluorophenyl)methyl]-3-hydroxy-imidazolidin-4-one] | – | – | ≤ 1 µM
22 | CC(C)(C#Cc1cc(F)c(C(=O)N2CC(=O)N(O)C2c2cccc(Br)c2)c(F)c1)NS(N)(=O)=O (centres unmarked) [Example 128, 2-(3-Bromophenyl)-1-[2,6-difluoro-4-[3-methyl-3-(sulfamoylamino)but-1-ynyl]benzoyl]-3-hydroxy-4-oxo-imidazolidine] | – | – | ≤ 1 µM
23 | CS(=O)(=O)NCc1cc(F)c(C(=O)N2CC(=O)N(O)C2c2cccc(Br)c2)c(F)c1 (centres unmarked) [Example 130, N-[[4-[2-(3-bromophenyl)-3-hydroxy-4-oxo-imidazolidine-1-carbonyl]-3,5-difluoro-phenyl]methyl]methanesulfonamide] | – | – | ≤ 1 µM
24 | O=C1CN(C(=O)c2c(F)cc(CCC3CCCCC3)cc2F)C(c2cccc(Br)c2)N1O (centres unmarked) [Example 131, 2-(3-Bromophenyl)-1-[4-(2-cyclohexylethyl)-2,6-difluoro-benzoyl]-3-hydroxy-imidazolidin-4-one] | – | – | ≤ 5 µM and 1 to 5 µM
25 | NS(=O)(=O)NCCCc1cc(F)c(C(=O)N2CC(=O)N(O)C2c2cccc(Br)c2)c(F)c1 (centres unmarked) [Example 132, 2-(3-Bromophenyl)-1-[2,6-difluoro-4-[3-(sulfamoylamino)propyl]benzoyl]-3-hydroxy-4-oxo-imidazolidine] | – | – | ≤ 1 µM
26 | O=C1CN(C(=O)c2c(F)cc(N3CCC3)cc2F)C(c2cccc(Br)c2)N1O (centres unmarked) [Example 134, 1-[4-(Azetidin-1-yl)-2,6-difluoro-benzoyl]-2-(3-bromophenyl)-3-hydroxy-imidazolidin-4-one] | – | – | ≤ 5 µM and 1 to 5 µM
27 | CN(CCO)c1cc(F)c(C(=O)N2CC(=O)N(O)C2c2cccc(Br)c2)c(F)c1 (centres unmarked) [Example 135, 2-(3-Bromophenyl)-1-[2,6-difluoro-4-[2-hydroxyethyl(methyl)amino]benzoyl]-3-hydroxy-imidazolidin-4-one] | – | – | ≤ 5 µM and 1 to 5 µM
28 | CC(c1c(F)cccc1F)N1CC(=O)N(O)C1c1cccc(Br)c1 (centres unmarked) [Example 141a, 2-(3-Bromophenyl)-1-[1-(2,6-difluorophenyl)ethyl]-3-hydroxy-imidazolidin-4-one] | – | less active isomer | –
